We go through 1 molecule from patent US20070142321A1, “METHOD FOR PREVENTING GROWTH OF BACTERIA ON CONTACT LENSES WITH EYE DROPS” (priority 2005, published 2007).

Assay [1] concerns microbes. As to the kind of experiment: Amount of Alexidine required to disinfect the solutions. The assay is classed as cell-based. The following applies: in Formulae 1-4. The method, then:
(§1) For the purposes of this patent application a disinfecting amount is an amount of an antimicrobial agent that passes the Stand Alone Disinfecting Efficacy Test by the Food and Drug Administration (510k) of the United States of America in a minimum of three out of four test samples in a test solution that is diluted with 0.9 wt. % saline solution in a 1:1 ratio of test solution to saline solution.
(§2) The FDA (510 (k)) Guidance Document for contact lens products defines procedures that measure the extend of viability loss of representative microorganisms at established time intervals to determine the extend of viability loss. FDA (510 (k)) Guidance Documents recommended test organisms for both disinfecting stand-alone and preservative efficacy testing are composed of three bacteria (Pseudomonas aeruginosa ATCC 9027, Stapylococcus aureus ATCC 6538, and Serratia marcescens ATCC 13880) and two fungi (Candida albicans ATCC 10231, and Fusarium solani ATCC 36031). The performance requirement biocidal stand alone testing calls for 3 log reduction for bacterial cells and 1 log reduction for each fungi. At day 28, after the rechallenge on day 14, the performance requirement for preservative efficacy testing calls for reduction of 3.0 logs per bacteria and ±0.5 for fungi.
(§3) With Alexidine, it has been discovered that approximately 1 ppm is required to disinfect each of the solutions above. […]

The test system of assay [2] is microbes. As to the kind of experiment: Disinfection of a contact lens removed from the eye and treated by a disinfecting/cleaning regimen. Particulars: Alexidine at 4.5 ppm; lens removed from the eye and treated with solution. It is filed as cell-based. The method, then: as §1, §2, §3

For the molecule `CCCCC(CC)CNC(=N)NC(=N)NCCCCCCNC(=N)NC(=N)NCC(CC)CCCC` (centres unmarked) [Alexidine, 1,1′-hexamethylenebis[5-(2-ethylhexyl)biguanide]], the “amount of Alexidine required to disinfect each of the solutions” value with microbes [1] is “approximately 1 ppm”. Also, in the assay on microbes [2], the “antimicrobial activity to disinfect a contact lens” value is “sufficient antimicrobial activity to disinfect a contact lens”.
